According to patent US11542304B2, “Multimeric bicyclic peptide ligands” (BicycleTx Limited, priority 2018, dated 2023):

Molecular target: CD137 (Homo sapiens, UniProt Q07011)
Experiment: CD137 Promega reporter cell activity assay (NF-κB luciferase in Jurkat cells)
Conditions: for Average Fold EC50 Improvement relative to CD137L: Average EC50 for CD137L = 14.2 nM; for Average Relative Fold Induction relative to CD137L: Average fold induction for CD137L = 4.0

Chain of CD137 (Q07011 24-255): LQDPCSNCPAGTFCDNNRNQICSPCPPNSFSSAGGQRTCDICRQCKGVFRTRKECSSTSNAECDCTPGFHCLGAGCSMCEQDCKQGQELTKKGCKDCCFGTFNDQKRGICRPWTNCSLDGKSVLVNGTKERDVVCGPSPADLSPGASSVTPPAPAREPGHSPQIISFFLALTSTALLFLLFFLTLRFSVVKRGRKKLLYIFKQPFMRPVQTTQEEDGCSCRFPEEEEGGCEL

Compound | Average Fold EC50 Improvement relative to CD137L | Average Relative Fold Induction relative to CD137L | CD137 agonism / activation in reporter cells (in words) (FIGS. 1 to 3 and 15) | Average fold induction (reference substance of Table 4A / 4B)
CCCC[C@@H]1NC(=O)[C@H](Cc2ccc(O)cc2)NC(=O)[C@@H]2CCCN2C(=O)[C@H](CC(=O)O)NC(=O)[C@H](C)NC(=O)[C@H](Cc2ccccc2)NC(=O)[C@@H]2CSCCC(=O)N3CN(CN(C3)C(=O)CCSC[C@@H](C(=O)N[C@@H](C)C(N)=O)NC1=O)C(=O)CCSC[C@H](NC(=O)[C@H](C)NC(C)=O)C(=O)N[C@@H]([C@@H](C)CC)C(=O)N[C@@H](CCC(=O)O)C(=O)N[C@@H](CCC(=O)O)C(=O)NCC(=O)N[C@@H](CCCCNC(=O)CCc1cn(CCOCCOCCOCCOCCOCCOCCOCCOCCOCCOCCNC(=O)CCOCC(COCCC(=O)NCCOCCOCCOCCOCCOCCOCCOCCOCCOCCOCCn3cc(CCC(=O)NCCCC[C@@H]4NC(=O)CNC(=O)[C@H](CCC(=O)O)NC(=O)[C@H](CCC(=O)O)NC(=O)[C@H]([C@@H](C)CC)NC(=O)[C@@H](NC(=O)[C@H](C)NC(C)=O)CSCCC(=O)N5CN6CN(C5)C(=O)CCSC[C@H](NC(=O)[C@H](Cc5ccc(O)cc5)NC4=O)C(=O)N[C@@H](Cc4ccccc4)C(=O)N[C@@H](C)C(=O)N[C@@H](CC(=O)O)C(=O)N4CCC[C@H]4C(=O)N[C@@H](Cc4ccc(O)cc4)C(=O)N[C@@H](CCCC)C(=O)N[C@H](C(=O)N[C@@H](C)C(N)=O)CSCCC6=O)nn3)(COCCC(=O)NCCOCCOCCOCCOCCOCCOCCOCCOCCOCCOCCn3cc(CCC(=O)NCCCC[C@@H]4NC(=O)CNC(=O)[C@H](CCC(=O)O)NC(=O)[C@H](CCC(=O)O)NC(=O)[C@H]([C@@H](C)CC)NC(=O)[C@@H](NC(=O)[C@H](C)NC(C)=O)CSCCC(=O)N5CN6CN(C5)C(=O)CCSC[C@H](NC(=O)[C@H](Cc5ccc(O)cc5)NC4=O)C(=O)N[C@@H](Cc4ccccc4)C(=O)N[C@@H](C)C(=O)N[C@@H](CC(=O)O)C(=O)N4CCC[C@H]4C(=O)N[C@@H](Cc4ccc(O)cc4)C(=O)N[C@@H](CCCC)C(=O)N[C@H](C(=O)N[C@@H](C)C(N)=O)CSCCC6=O)nn3)COCCC(=O)NCCOCCOCCOCCOCCOCCOCCOCCOCCOCCOCCn3cc(CCC(=O)NCCCC[C@@H]4NC(=O)CNC(=O)[C@H](CCC(=O)O)NC(=O)[C@H](CCC(=O)O)NC(=O)[C@H]([C@@H](C)CC)NC(=O)[C@@H](NC(=O)[C@H](C)NC(C)=O)CSCCC(=O)N5CN6CN(C5)C(=O)CCSC[C@H](NC(=O)[C@H](Cc5ccc(O)cc5)NC4=O)C(=O)N[C@@H](Cc4ccccc4)C(=O)N[C@@H](C)C(=O)N[C@@H](CC(=O)O)C(=O)N4CCC[C@H]4C(=O)N[C@@H](Cc4ccc(O)cc4)C(=O)N[C@@H](CCCC)C(=O)N[C@H](C(=O)N[C@@H](C)C(N)=O)CSCCC6=O)nn3)nn1)C(=O)N[C@@H](Cc1ccc(O)cc1)C(=O)N2 [BCY7845] | 17.78 | 1.54 | high levels of CD137 agonism | **Average fold induction for BCY7845 = 6.3
CCCC[C@@H]1NC(=O)[C@H](Cc2ccc(O)cc2)NC(=O)[C@@H]2CCCN2C(=O)[C@H](CC(=O)O)NC(=O)[C@H](C)NC(=O)[C@H](Cc2ccccc2)NC(=O)[C@@H]2CSCCC(=O)N3CN(CN(C3)C(=O)CCSC[C@@H](C(=O)N[C@@H](C)C(N)=O)NC1=O)C(=O)CCSC[C@H](NC(=O)[C@H](C)NC(C)=O)C(=O)N[C@@H]([C@@H](C)CC)C(=O)N[C@@H](CCC(=O)O)C(=O)N[C@@H](CCC(=O)O)C(=O)N[C@H](CCCCNC(=O)OCC1C3CCc4nnn(CCOCCOCCOCCOCCOCCOCCOCCOCCOCCOCCNC(=O)CCOCCN(CCOCCC(=O)NCCOCCOCCOCCOCCOCCOCCOCCOCCOCCOCCn5nnc6c5CCC5C(CC6)C5COC(=O)NCCCC[C@H]5NC(=O)[C@H](CCC(=O)O)NC(=O)[C@H](CCC(=O)O)NC(=O)[C@H]([C@@H](C)CC)NC(=O)[C@@H](NC(=O)[C@H](C)NC(C)=O)CSCCC(=O)N6CN7CN(C6)C(=O)CCSC[C@H](NC(=O)[C@H](Cc6ccc(O)cc6)NC(=O)[C@H](CCC(N)=O)NC5=O)C(=O)N[C@@H](Cc5ccccc5)C(=O)N[C@@H](C)C(=O)N[C@@H](CC(=O)O)C(=O)N5CCC[C@H]5C(=O)N[C@@H](Cc5ccc(O)cc5)C(=O)N[C@@H](CCCC)C(=O)N[C@H](C(=O)N[C@@H](C)C(N)=O)CSCCC7=O)CCOCCC(=O)NCCOCCOCCOCCOCCOCCOCCOCCOCCOCCOCCn5nnc6c5CCC5C(CC6)C5COC(=O)NCCCC[C@H]5NC(=O)[C@H](CCC(=O)O)NC(=O)[C@H](CCC(=O)O)NC(=O)[C@H]([C@@H](C)CC)NC(=O)[C@@H](NC(=O)[C@H](C)NC(C)=O)CSCCC(=O)N6CN7CN(C6)C(=O)CCSC[C@H](NC(=O)[C@H](Cc6ccc(O)cc6)NC(=O)[C@H](CCC(N)=O)NC5=O)C(=O)N[C@@H](Cc5ccccc5)C(=O)N[C@@H](C)C(=O)N[C@@H](CC(=O)O)C(=O)N5CCC[C@H]5C(=O)N[C@@H](Cc5ccc(O)cc5)C(=O)N[C@@H](CCCC)C(=O)N[C@H](C(=O)N[C@@H](C)C(N)=O)CSCCC7=O)c4CCC31)C(=O)N[C@@H](CCC(N)=O)C(=O)N[C@@H](Cc1ccc(O)cc1)C(=O)N2 (stereo partly shown) [BCY8102] | 41.27 | 0.91 |  | 
CCCC[C@@H]1NC(=O)[C@H](Cc2ccc(O)cc2)NC(=O)[C@@H]2CCCN2C(=O)[C@H](CC(=O)O)NC(=O)[C@H](C)NC(=O)[C@H](Cc2ccccc2)NC(=O)[C@@H]2CSCCC(=O)N3CN(CN(C3)C(=O)CCSC[C@@H](C(=O)N[C@@H](C)C(N)=O)NC1=O)C(=O)CCSC[C@H](NC(=O)[C@H](C)NC(C)=O)C(=O)N[C@@H]([C@@H](C)CC)C(=O)N[C@@H](CCC(=O)O)C(=O)N[C@@H](CCC(=O)O)C(=O)N[C@H](CCCCNC(=O)OCC1C3CCc4nnn(CCOCCOCCOCCOCCOCCOCCOCCOCCOCCOCCOCCOCCOCCOCCOCCOCCOCCOCCOCCOCCOCCOCCOCCNC(=O)CCOCCN(CCOCCC(=O)NCCOCCOCCOCCOCCOCCOCCOCCOCCOCCOCCOCCOCCOCCOCCOCCOCCOCCOCCOCCOCCOCCOCCOCCn5nnc6c5CCC5C(CC6)C5COC(=O)NCCCC[C@H]5NC(=O)[C@H](CCC(=O)O)NC(=O)[C@H](CCC(=O)O)NC(=O)[C@H]([C@@H](C)CC)NC(=O)[C@@H](NC(=O)[C@H](C)NC(C)=O)CSCCC(=O)N6CN7CN(C6)C(=O)CCSC[C@H](NC(=O)[C@H](Cc6ccc(O)cc6)NC(=O)[C@H](CCC(N)=O)NC5=O)C(=O)N[C@@H](Cc5ccccc5)C(=O)N[C@@H](C)C(=O)N[C@@H](CC(=O)O)C(=O)N5CCC[C@H]5C(=O)N[C@@H](Cc5ccc(O)cc5)C(=O)N[C@@H](CCCC)C(=O)N[C@H](C(=O)N[C@@H](C)C(N)=O)CSCCC7=O)CCOCCC(=O)NCCOCCOCCOCCOCCOCCOCCOCCOCCOCCOCCOCCOCCOCCOCCOCCOCCOCCOCCOCCOCCOCCOCCOCCn5nnc6c5CCC5C(CC6)C5COC(=O)NCCCC[C@H]5NC(=O)[C@H](CCC(=O)O)NC(=O)[C@H](CCC(=O)O)NC(=O)[C@H]([C@@H](C)CC)NC(=O)[C@@H](NC(=O)[C@H](C)NC(C)=O)CSCCC(=O)N6CN7CN(C6)C(=O)CCSC[C@H](NC(=O)[C@H](Cc6ccc(O)cc6)NC(=O)[C@H](CCC(N)=O)NC5=O)C(=O)N[C@@H](Cc5ccccc5)C(=O)N[C@@H](C)C(=O)N[C@@H](CC(=O)O)C(=O)N5CCC[C@H]5C(=O)N[C@@H](Cc5ccc(O)cc5)C(=O)N[C@@H](CCCC)C(=O)N[C@H](C(=O)N[C@@H](C)C(N)=O)CSCCC7=O)c4CCC31)C(=O)N[C@@H](CCC(N)=O)C(=O)N[C@@H](Cc1ccc(O)cc1)C(=O)N2 (stereo partly shown) [BCY8103] | 188.34 | 0.91 |  | 
CCCC[C@@H]1NC(=O)[C@H](Cc2ccc(O)cc2)NC(=O)[C@@H]2CCCN2C(=O)[C@H](CC(=O)O)NC(=O)[C@H](C)NC(=O)[C@H](Cc2ccccc2)NC(=O)[C@@H]2CSCCC(=O)N3CN(CN(C3)C(=O)CCSC[C@@H](C(=O)N[C@@H](C)C(N)=O)NC1=O)C(=O)CCSC[C@H](NC(=O)[C@H](C)NC(C)=O)C(=O)N[C@@H]([C@@H](C)CC)C(=O)N[C@@H](CCC(=O)O)C(=O)N[C@@H](CCC(=O)O)C(=O)N[C@H](CCCCNC(=O)OCC1C3CCc4nnn(CCOCCOCCOCCOCCOCCOCCOCCOCCOCCOCCNC(=O)CCOCC(COCCC(=O)NCCOCCOCCOCCOCCOCCOCCOCCOCCOCCOCCn5nnc6c5CCC5C(CC6)C5COC(=O)NCCCC[C@H]5NC(=O)[C@H](CCC(=O)O)NC(=O)[C@H](CCC(=O)O)NC(=O)[C@H]([C@@H](C)CC)NC(=O)[C@@H](NC(=O)[C@H](C)NC(C)=O)CSCCC(=O)N6CN7CN(C6)C(=O)CCSC[C@H](NC(=O)[C@H](Cc6ccc(O)cc6)NC(=O)[C@H](CCC(N)=O)NC5=O)C(=O)N[C@@H](Cc5ccccc5)C(=O)N[C@@H](C)C(=O)N[C@@H](CC(=O)O)C(=O)N5CCC[C@H]5C(=O)N[C@@H](Cc5ccc(O)cc5)C(=O)N[C@@H](CCCC)C(=O)N[C@H](C(=O)N[C@@H](C)C(N)=O)CSCCC7=O)(COCCC(=O)NCCOCCOCCOCCOCCOCCOCCOCCOCCOCCOCCn5nnc6c5CCC5C(CC6)C5COC(=O)NCCCC[C@H]5NC(=O)[C@H](CCC(=O)O)NC(=O)[C@H](CCC(=O)O)NC(=O)[C@H]([C@@H](C)CC)NC(=O)[C@@H](NC(=O)[C@H](C)NC(C)=O)CSCCC(=O)N6CN7CN(C6)C(=O)CCSC[C@H](NC(=O)[C@H](Cc6ccc(O)cc6)NC(=O)[C@H](CCC(N)=O)NC5=O)C(=O)N[C@@H](Cc5ccccc5)C(=O)N[C@@H](C)C(=O)N[C@@H](CC(=O)O)C(=O)N5CCC[C@H]5C(=O)N[C@@H](Cc5ccc(O)cc5)C(=O)N[C@@H](CCCC)C(=O)N[C@H](C(=O)N[C@@H](C)C(N)=O)CSCCC7=O)COCCC(=O)NCCOCCOCCOCCOCCOCCOCCOCCOCCOCCOCCn5nnc6c5CCC5C(CC6)C5COC(=O)NCCCC[C@H]5NC(=O)[C@H](CCC(=O)O)NC(=O)[C@H](CCC(=O)O)NC(=O)[C@H]([C@@H](C)CC)NC(=O)[C@@H](NC(=O)[C@H](C)NC(C)=O)CSCCC(=O)N6CN7CN(C6)C(=O)CCSC[C@H](NC(=O)[C@H](Cc6ccc(O)cc6)NC(=O)[C@H](CCC(N)=O)NC5=O)C(=O)N[C@@H](Cc5ccccc5)C(=O)N[C@@H](C)C(=O)N[C@@H](CC(=O)O)C(=O)N5CCC[C@H]5C(=O)N[C@@H](Cc5ccc(O)cc5)C(=O)N[C@@H](CCCC)C(=O)N[C@H](C(=O)N[C@@H](C)C(N)=O)CSCCC7=O)c4CCC31)C(=O)N[C@@H](CCC(N)=O)C(=O)N[C@@H](Cc1ccc(O)cc1)C(=O)N2 (stereo partly shown) [BCY8104] | 103.27 | 1.65 |  | 
